Measurements taken from patent publication US20220387375A1, “TRPV1 ACTIVATION-MODULATING COMPLEX MIXTURES OF CANNABINOIDS AND/OR TERPENES” (GBS Global Biopharma, Inc., priority 2018, published 2022).

Assays:
Format in all cases: cell-based
TRPV1 = molecular target: T1, TRPV1 (Rattus norvegicus, UniProt O35433); experiment: Whole-cell patch clamp of TRPV1 currents in HEK293 cells overexpressing TRPV1 (HEK293-V1); conditions: for Max I amplitude: 120 s, Ca 1 mM external, unbuffered internal calcium
T1 construct: FLAG; expressed in transfected cells
T1 sequence (O35433 whole entry): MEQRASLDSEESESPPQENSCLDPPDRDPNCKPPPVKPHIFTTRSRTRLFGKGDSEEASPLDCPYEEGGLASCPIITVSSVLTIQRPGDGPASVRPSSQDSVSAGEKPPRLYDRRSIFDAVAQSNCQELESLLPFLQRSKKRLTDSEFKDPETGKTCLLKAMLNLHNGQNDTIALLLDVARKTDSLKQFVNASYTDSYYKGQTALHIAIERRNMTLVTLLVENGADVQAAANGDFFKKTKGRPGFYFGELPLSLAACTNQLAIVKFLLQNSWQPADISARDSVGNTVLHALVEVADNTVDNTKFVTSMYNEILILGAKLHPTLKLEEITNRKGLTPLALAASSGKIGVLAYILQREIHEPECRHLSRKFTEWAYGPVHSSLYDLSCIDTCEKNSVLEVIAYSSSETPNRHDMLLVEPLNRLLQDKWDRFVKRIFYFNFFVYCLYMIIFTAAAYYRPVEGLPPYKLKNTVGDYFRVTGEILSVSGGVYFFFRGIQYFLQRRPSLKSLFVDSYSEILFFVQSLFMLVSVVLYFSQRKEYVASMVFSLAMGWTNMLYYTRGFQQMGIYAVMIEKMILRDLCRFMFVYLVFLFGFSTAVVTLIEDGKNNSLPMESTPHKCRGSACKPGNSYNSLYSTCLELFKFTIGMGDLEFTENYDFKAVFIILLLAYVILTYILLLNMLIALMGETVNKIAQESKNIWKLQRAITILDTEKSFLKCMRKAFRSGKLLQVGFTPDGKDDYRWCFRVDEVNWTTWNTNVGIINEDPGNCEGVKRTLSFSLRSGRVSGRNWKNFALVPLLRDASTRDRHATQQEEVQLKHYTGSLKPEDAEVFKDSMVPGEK
Method: (§1) HEK TRexTRPV1 were cultured in DMEM, 10% Fetal Bovine Serum, 2 mM Lglutamine, 10 μg/ml Blasticidin (Calbiochem, San Diego Calif.), 400 μg/ml Zeocin (InvivoGen, San Diego Calif.), where indicated transgene expression was induced using 1 μg/ml Tetracycline for 16-24 hrs. Unless otherwise indicated, basal expression of TRPV1 without induction was sufficient for these studies, and comparisons were made to untransfected HEK where needed. HEKTRex293 over-expressing human TRPV2, human TRPA1 and human TRPM8 were obtained from SB Drug Discovery (Glasgow, Scotland) and cultured as described above. The cannabinoids and terpenes were assayed in HEK cells that have been transfected with the TRPV1 ion channel protein. These cells are called HEK293-V1 cells.
This technique is used to study ionic currents from HEK293-V1. The voltage across the cell membrane is controlled and the ionic currents associated with changes in voltage are measured. A micropipette tip is pulled to a few micrometers in diameter followed by heating the tip to produce a smooth surface that assists in forming a high resistance seal with the cell membrane. To obtain this high resistance seal, the micropipette is pressed against a cell membrane and suction is applied. The membrane then fuses onto the glass surface creating a high resistance in the gigaohm range. This makes it possible to isolate electronically the ionic currents measured across the membrane patch or across the entire cell.
Patch-clamp experiments were performed in the whole-cell configuration at 21-25° C. Patch pipettes had resistances of 2-3 MΩ. Data was acquired with PatchMaster software (HEKA, Lambrecht, Germany), controlling an EPC-9 amplifier. Voltage ramps of 50 ms spanning the voltage range from −100 to 100 mV were delivered from a holding potential of 0 mV at a rate of 0.5 Hz over a period of 500 ms to 180 seconds (3 minutes). Voltages were corrected for a liquid junction potential of 10 mV. Currents were filtered at 2.9 kHz and digitized at 100 μs intervals. Capacitive currents were determined and corrected before each voltage ramp. The development of currents for a given potential was extracted from individual ramp current records by measuring the current amplitudes at voltages of −80 mV and +80 mV. Data were analyzed with FitMaster (HEKA, Lambrecht, Germany), and IgorPro (WaveMetrics, Lake Oswego, Oreg., USA). Where applicable, statistical errors of averaged data are given as mean±s.e.m with n determinations. The activated current amplitudes are analyzed by nA rather than pA/pF. […] Also the cell size selected for patching was in the 9 -12 pF range.
For patch-clamp recordings, HEK293 cells were kept in a standard sodium-based external Ringer's solution containing (mM): 140 NaCl, 1 CaCl2, 2 MgCl2, 2.8 KCl, 11 glucose, 10 HEPES-NaOH with a pH of 7.2 and osmolarity of 300 mOsmol. To assess the effects of external Calcium (Ca) on TRPV1 inactivation kinetics, Ca at different levels were tested including 0, 1, and 3 mM. In Experiments with zero external Ca, EGTA 10 mM was added and the Na concentration was lowered to 130 mM to maintain standard osmotic conditions at 300 mOsmol. For rapid external solution application and exchanges we used the SmartSquirt delivery system (Auto-Mate Scientific, San Francisco Calif., USA) that included four cryo tubes allowing for solution exchanges within one patch. This system included a ValveLink TTL interface between the electronic valves and the EPC10 amplifier (HEKA, Lambrecht, Germany). This electronic configuration allowed for programmable solution changes via the PatchMaster software (HEKA, Lambrecht, Germany).

TRPM8 = molecular target: T2, TRPM8 (Homo sapiens, UniProt Q7Z2W7); experiment: Bulk calcium assay (Fluo-4) in HEK cells overexpressing TRPM8
T2 construct: host or cells: HEK TRex293
T2 sequence (Q7Z2W7 whole entry): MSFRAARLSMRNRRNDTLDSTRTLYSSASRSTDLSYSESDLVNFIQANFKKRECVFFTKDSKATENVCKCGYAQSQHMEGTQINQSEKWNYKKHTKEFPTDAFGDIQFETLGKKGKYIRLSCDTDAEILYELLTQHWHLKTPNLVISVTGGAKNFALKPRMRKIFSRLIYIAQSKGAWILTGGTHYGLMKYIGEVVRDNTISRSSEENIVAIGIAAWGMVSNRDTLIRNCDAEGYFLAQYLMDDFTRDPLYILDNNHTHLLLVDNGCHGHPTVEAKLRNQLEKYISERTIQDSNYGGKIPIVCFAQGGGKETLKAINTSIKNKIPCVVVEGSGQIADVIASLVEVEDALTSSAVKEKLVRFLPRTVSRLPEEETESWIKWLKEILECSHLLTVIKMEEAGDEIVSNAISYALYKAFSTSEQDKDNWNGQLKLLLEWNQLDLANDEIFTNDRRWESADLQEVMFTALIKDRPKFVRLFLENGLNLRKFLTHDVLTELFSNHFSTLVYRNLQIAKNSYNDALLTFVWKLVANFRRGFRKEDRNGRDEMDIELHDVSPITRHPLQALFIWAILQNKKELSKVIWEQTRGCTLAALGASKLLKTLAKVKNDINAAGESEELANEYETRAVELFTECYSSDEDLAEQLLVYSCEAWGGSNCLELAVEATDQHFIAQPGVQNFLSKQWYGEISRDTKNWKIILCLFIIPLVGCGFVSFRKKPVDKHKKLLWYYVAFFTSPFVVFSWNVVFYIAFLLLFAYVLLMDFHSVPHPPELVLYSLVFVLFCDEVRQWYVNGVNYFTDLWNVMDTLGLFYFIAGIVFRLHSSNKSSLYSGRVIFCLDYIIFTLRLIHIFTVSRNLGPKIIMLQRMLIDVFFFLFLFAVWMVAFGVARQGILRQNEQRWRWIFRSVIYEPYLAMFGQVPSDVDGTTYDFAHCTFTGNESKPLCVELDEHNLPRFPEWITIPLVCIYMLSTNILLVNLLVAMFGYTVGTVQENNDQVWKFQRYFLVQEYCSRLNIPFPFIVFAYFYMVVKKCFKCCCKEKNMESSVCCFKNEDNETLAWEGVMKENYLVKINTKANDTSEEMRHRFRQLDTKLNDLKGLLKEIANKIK
Method: as §1
Cells were washed and incubated with 0.2 micromolar Fluo-4 for 30 minutes at 37° C. in a standard modified Ringer's solution of the following composition (in mM): NaCl 145, KCl 2.8, CsCl 10, CaCl2 10, MgCl2 2, glucose 10, Hepes·NaOH 10, pH 7.4, 330 mOsm. Cells were transferred to 96-well plates at 50,000 cells/well and stimulated as indicated. Calcium signals were acquired using a Flexstation 3 (Molecular Devices, Sunnydale, USA). Data was analyzed using SoftMax® Pro 5 (Molecular Devices). Where indicated, nomically calcium-free external conditions were achieved by the preparation of 0 mM CaCl2 Ringer solution containing 1 mM EGTA.
Calcium responses mediated by TRPA1, TRPM8, TRPV2, and TRPV1 were tested by calcium assay in the cell culture system. Cells were washed and incubated with 0.2 μM fluo-4 acetoxymethyl ester (“Fluo-4”) for 30 minutes at 37° C. in a standard modified Ringer's solution of the following composition (in mM): NaCl 145, KCl 2.8, CsCl 10, CaCl2 10, MgCl2 2, glucose 10, Hepes·NaOH 10, pH 7.4, 330 mOsm. Cells were transferred to 96-well plates at 50,000 cells/well and stimulated with 10 μM myrcene diluted in DMSO. Vehicle (DMSO) was used as a negative control. Vehicle traces were subtracted from the myrcene traces for each cell line.
The potential for different cannabinoids to target specific TRP channels, or to co-target more than one channel type, are of potential therapeutic options for the treatment and management of pain. Comparison of the impacts of a variety of cannabinoid on overexpression systems for TRPV2, TRPM8, and TRPA1 were performed in a side-by-side fashion, under bulk calcium assays where the measurements with each trace representing averaged triplicates of 100,000 cells per sample. As shown in FIGS. 41-43 and summarized in Table 3, there are clear differences in responsiveness between cannabinoids at a single channel type than between channel types to a given cannabinoid.

WT HEK293 = experiment: Bulk calcium assay in untransfected WT HEK293; conditions: 10 μM, 1 mM external Ca2+

## C=C(C)[C@@H]1CCC(C)=C[C@H]1c1c(O)cc(CCC)cc1O [CBDV, Cannabidivarin]
TRPV1; 50 μM, induction time 25 hours (FIGS. 37-40C)
  attainment of the pore-dilated state: lack of attainment of the pore-dilated state
TRPV1; after cannabinoid at 50 (voltage ramp)
  IV relationship / TRPV1 channel state: outwardly-rectifying IV curve consistent with un-dilated TRPV1 (state 1)
TRPV1; calculated from Imax per dose, HEK-TRPV1 patch clamp, read-out: EC50 at TRPV1
  EC50: 56 µM
TRPV1; cannabinoid at 50 (FIGS. 3A, 4A, 6A, 7A), applied at data point 60
  inward current induced: 2-3 nA
TRPV1; cannabinoid at 50, 5 μM myrcene or 1 μM capsaicin
  time course of induced TRPV1 current (sustained or inactivating): sustained
TRPV1; dose 10 micromolar
  Rate of inactivation: 0 dpsec^−1
  Time to max: 148 s
  Max I amplitude: 0.5 nA
TRPV1; dose 30 micromolar
  Rate of inactivation: .013 dpsec^−1
  Time to max: 136 s
  Max I amplitude: 1.5 nA
TRPV1; dose 50 micromolar
  Rate of inactivation: .009 dpsec^−1
  Time to max: 82 s
  Max I amplitude: 0.9 nA
TRPV1; dose 150 micromolar
  Rate of inactivation: .14 dpsec^−1
  Time to max: 62 s
  Max I amplitude: 3.9 nA
TRPM8
  mean maximal Ca^2+ signal RFU achieved 0-180 s (SD), TRM8: 3.89 (0.05) RFU
WT HEK293
  calcium response of WT HEK293: responding slightly
